From PMC10794144, “A novel antibiotic class targeting the lipopolysaccharide transporter” (Nature, 2024)
Read-outs that look alike come from different tables or passages of the source.

Test system: A. baumannii
Assay: MIC, broth microdilution in CAMHB supplemented with human serum, read at 100% growth inhibition
Type: cell-based, Acinetobacter baumannii
Conditions: Acinetobacter baumannii, 20% HS, read-out: MIC
Method: MIC determinations were performed using the broth microdilution method and in line with CLSI guidelines M07 and M100 (refs. [37],[38]). Bacterial inocula were prepared by diluting a 0.5 McFarland suspension in CAMHB or lysogeny broth (LB) specifically for A. baylyi isolates. […] MIC values of all of the tested antibiotics were read as the lowest compound concentration inhibiting bacterial growth by naked eye or beyond which the OD600 ceased to decrease.

Measured: MIC

CN1C(=O)[C@H](CCCCN)NC(=O)[C@H](CCCN)NCc2cccnc2Sc2cccc(-c3ccc(C(=O)O)cc3)c2CNC(=O)[C@@H]1Cc1c[nH]c2ccccc12 [zosurabalpin]
0.25 µg/mL: isolate 1630178 | isolate 1630410 | isolate 1631954 | isolate 1632166 | isolate 1632273 | isolate 1633081 | isolate 1633098 | isolate 1633115 | isolate 1728772 | isolate 1728774 | isolate 1729352 | isolate 1729353 | isolate 1729358 | isolate 1865057 | isolate 1865269 | isolate 1865274 | isolate 1865714
0.03 µg/mL: isolate 1866283
0.06 µg/mL: isolate 1171976 | isolate 1172126 | isolate 1631625 | isolate 1631849 | isolate 1631955 | isolate 1632073 | isolate 1864609 | isolate 1865273 | isolate 1865494 | isolate 1866282
1 µg/mL: isolate 1154091 | isolate 1630190 | isolate 1633117 | isolate 1633124 | isolate 1633271 | isolate 1633272 | isolate 1729043 | isolate 1729044 | isolate 1729052 | isolate 1729362 | isolate 1729379 | isolate 1865266
0.5 µg/mL: isolate 1631735 | isolate 1631949 | isolate 1631953 | isolate 1633082 | isolate 1633121 | isolate 1728773 | isolate 1728884 | isolate 1729123 | isolate 1729351 | isolate 1864833 | isolate 1865083 | isolate 1865084 | isolate 1865085 | isolate 1865086
0.125 µg/mL: isolate 1631846 | isolate 1865386 | isolate 1865387 | isolate 1866281
2 µg/mL: isolate 1631847 | isolate 1633269 | isolate 1729042 | isolate 1729049 | isolate 1729050
0.016 µg/mL: isolate 1161864 | isolate 1172109
4 µg/mL: isolate 1631848 | isolate 1729102
